pIC50: −log10 of the molar value. The source made the active and inactive calls.
What was measured:
[1] = target: T1, Luciferin 4-monooxygenase (Photinus pyralis, UniProt P08659); test: Counter Screen for Luciferase-based Assay Positives. [Related pubchem assays: 620, 618, 411 ]
HEK293 [2] = test: PMA/Ionomycin induced NF-kB luciferase assay in 293- NF-kB-Luc stable cells. [Related pubchem assays: 1299, 1270, 1295, 1375, 1287, 1281, 1293, 1291, 1289, 1280, 465, 1364, 1282, 1372, 1365, 1370, 1367, 1366, 1269, 1373, 1292, 1290, 1302, 1371, 1283, 1271, 1294, 1374, 1368, 1369 ]; type: functional, cell-based; settings: Homo sapiens
[3] = target: T1, Luciferin 4-monooxygenase; test: In vitro luciferase assay using purified luciferase. [Related pubchem assays: 1299, 1270, 1295, 1375, 1287, 1281, 1293, 1291, 1289, 1280, 465, 1364, 1282, 1372, 1365, 1370, 1367, 1366, 1266, 1373, 1292, 1290, 1302, 1371, 1283, 1271, 1294, 1374, 1368, 1369 ]
[4] = target: Glyceraldehyde-3-phosphate dehydrogenase (Homo sapiens, UniProt P04406)
HT-1080 = test: HT1080 cell viability loss – fluorescence readout (AID 620); type: functional, cell-based; settings: Homo sapiens
HEK293 [5] = test: Cytotoxicity assay in HEK293 cells. [Related pubchem assays (depositor defined):AID1266, AID1269, AID1270, AID1271, AID1280, AID1281, AID1282, AID1283, AID1287, AID1289, AID1290, AID1291, AID1292, AID1293, AID1294, AID1295, AID1299, AID1302, AID1364, AID1365, AID1366, AID1367, AID1369, AID1370, AID1371, AID1372, AID1373, AID1374, AID1375, AID1384 …; type: functional, cell-based; settings: Homo sapiens
[6] = blockers of HIV-1 envelope-mediated cell-cell fusion – cherry-pick, dose response (AID 652057); type: functional, cell-based
[7] = off-target signal loss in HeLa-CEM21 co-culture – HeLa F-luc CTL cells, cherry-picked, counter-screen for HIV-1 Env fusion inhibitor project, dose response (AID 652040); type: functional, cell-based;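 note: potency for signal decrease marking cytotoxic or nonspecific inhibition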
[8] = HIV-1 AD8 envelope cell-cell fusion blockers – cherry-pick, dose response (AID 652062); type: functional, cell-based;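 note: luciferase signal from cell-cell fusion driven by HIV-1 clade B AD8 Env; potency is for inhibitors of fusion seen as a drop in luminescence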
[9] = target: Scavenger receptor class B member 1 (Mus musculus, UniProt Q61009); test: mouse SR-BI DiI-HDL uptake blockers – ldlA[mSR-BI] cells, fluorescence, cherry pick, dose response (AID 493194); type: functional, cell-based;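 note: cellular uptake of fluorescent DiI-labeled HDL measured as cell fluorescence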
[10] = target: Serine/threonine-protein phosphatase PP1-alpha catalytic subunit (Homo sapiens, UniProt P62136); test: inhibition of protein phosphatase 1 activity – biochemical, fluorescence, dose response (AID 2403);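 note: phosphatase turnover of OMFP into fluorescent 3-O-methylfluorescein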
[11] = Trypanosoma cruzi growth suppression in host cells – NIH3T3 host cells, beta-gal luminescence, confirmation (AID 2044); type: functional, cell-based;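 note: intracellular parasites grown in NIH/3T3 mouse fibroblasts as host cells; luminescent beta-galactosidase reporter signal from transgenic T. cruzi replicating inside host cells; inhibitors lower the luminescence signal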
[12] = target: Serine/threonine-protein phosphatase (Homo sapiens, UniProt Q9BPW0); test: Counterscreen for inhibitors of PP1: fluorescence-based biochemical high throughput dose response assay to identify inhibitors of Protein Phosphatase 5 (PP5). [Related pubchem assays: 2034 (Summary (PP5 inhibitors)), 1987 (PP5 inhibitors in singlate), 2235 (PP1 inhibitors in singlate)]
[13] = NIH3T3 cell viability loss – ATP luminescence, mouse fibroblasts, counter-screen, dose response (AID 2010); type: functional, cell-based;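 note: cells exposed to compound for about 90 hours before reading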
[14] = target: Voltage-dependent T-type calcium channel subunit alpha-1H (Homo sapiens, UniProt O95180); type: functional;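 note: channel activity triggered by adding a high calcium stimulation buffer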
[15] = THP-1 cell cytotoxicity, dose response, cytotoxicity control for non-replicating M. tuberculosis project (AID 489025); type: functional
[16] = Vero E6 cell cytotoxicity, dose response, cytotoxicity control for non-replicating M. tuberculosis project, secondary assay (AID 492998); type: functional, VeroE6; settings: Vero C1008
Nonstructural protein 1 = Nonstructural protein 1 (Influenza A virus, UniProt Q194T2); type: functional, Influenza A virus (A/California/07/2009(H1N1))
cells = type: functional
[17] = viability of PTEN-deleted HCT116 cells – cell-based, HCT116 PTEN knockout, dose response (AID 1047); type: functional;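 note: HCT116 colon tumor cells with PTEN knocked out; cells exposed to compound for 60 hours before readout; potency for loss of cell viability measured by luminescence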
[18] = target: T2, Kappa-type opioid receptor (Homo sapiens, UniProt P41145); type: functional
Beta-galactosidase = Beta-galactosidase (Escherichia coli, UniProt Q8VNN2); type: functional
[19] = viability of HCT116 lacking mutant beta-catenin – cell-based, human colon tumor, dose response (AID 1045); type: functional;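 note: HCT116 colon tumor cells with beta catenin knocked out; cells exposed to compound for 60 hours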
[20] = target: T2, Kappa-type opioid receptor; type: functional; remark: listed apart in the source
[21] = Fluorescence-based cell-based high throughput dose response assay for inhibitors of the interaction of nucleotide-binding oligomerization domain containing 2 (NOD2) and the receptor-interacting serine-threonine kinase 2 (RIPK2).; type: functional; settings: Homo sapiens
[22] = target: Neurotensin receptor type 1 (Homo sapiens, UniProt P30989); type: functional;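 note: Image-based confirmatory dose-response assay measuring agonist activity at NTR1; NTR1-expressing U2OS osteosarcoma cells imaged for beta-arrestin GFP spot formation; agonist potency where compounds increase beta-arrestin recruitment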
Fatty acid synthase [23] = target: T3, Fatty acid synthase (Homo sapiens, UniProt P49327); test: inhibition of human FAS-TE enzyme activity – biochemical, endpoint fluorescence intensity, uHTS hits, dose response (AID 624327); type: functional;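 note: fluorescence from hydrolysis of an O-methyl fluorescein acyl ester substrate by the enzyme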
Fatty acid synthase [24] = target: T3, Fatty acid synthase; test: inhibition of human FAS-TE enzyme activity – biochemical, kinetic fluorescence intensity, dose response (AID 624326); type: functional;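 note: rate of fluorescence rise from hydrolysis of a fluorogenic O-methyl fluorescein ester substrate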
ORF 73 = ORF 73 (Human herpesvirus 8, UniProt O40947); test: KSHV LANA DNA-binding disruption – biochemical, fluorescence polarization, cherry-picked samples, dose response (AID 504725); design: species or system Human gammaherpesvirus 8;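 note: fluorescence polarization of a labeled DNA duplex reporting LANA DNA binding; potency is for inhibitors that block LANA binding to the DNA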

Chain of Glyceraldehyde-3-phosphate dehydrogenase (P04406 whole entry): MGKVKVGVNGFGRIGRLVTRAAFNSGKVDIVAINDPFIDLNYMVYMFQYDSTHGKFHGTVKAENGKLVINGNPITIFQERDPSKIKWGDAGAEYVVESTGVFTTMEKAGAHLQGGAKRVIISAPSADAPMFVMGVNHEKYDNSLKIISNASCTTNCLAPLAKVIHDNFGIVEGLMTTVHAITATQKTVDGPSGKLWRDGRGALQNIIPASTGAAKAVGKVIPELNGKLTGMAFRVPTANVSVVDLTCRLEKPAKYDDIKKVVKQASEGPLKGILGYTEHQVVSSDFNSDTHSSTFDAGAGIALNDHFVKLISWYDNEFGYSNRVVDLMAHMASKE
T2 sequence (P41145 whole entry): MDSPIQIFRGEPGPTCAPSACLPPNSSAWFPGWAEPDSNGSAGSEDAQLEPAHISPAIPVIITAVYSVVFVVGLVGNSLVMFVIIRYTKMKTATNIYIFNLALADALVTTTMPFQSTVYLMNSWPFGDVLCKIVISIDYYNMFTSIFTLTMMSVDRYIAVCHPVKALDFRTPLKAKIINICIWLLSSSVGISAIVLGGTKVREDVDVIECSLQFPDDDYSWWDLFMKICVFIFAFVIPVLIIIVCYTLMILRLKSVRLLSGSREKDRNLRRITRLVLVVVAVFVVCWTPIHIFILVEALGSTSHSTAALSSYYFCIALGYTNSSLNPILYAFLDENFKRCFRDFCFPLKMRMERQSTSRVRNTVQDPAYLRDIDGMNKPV
T1 sequence (P08659 whole entry): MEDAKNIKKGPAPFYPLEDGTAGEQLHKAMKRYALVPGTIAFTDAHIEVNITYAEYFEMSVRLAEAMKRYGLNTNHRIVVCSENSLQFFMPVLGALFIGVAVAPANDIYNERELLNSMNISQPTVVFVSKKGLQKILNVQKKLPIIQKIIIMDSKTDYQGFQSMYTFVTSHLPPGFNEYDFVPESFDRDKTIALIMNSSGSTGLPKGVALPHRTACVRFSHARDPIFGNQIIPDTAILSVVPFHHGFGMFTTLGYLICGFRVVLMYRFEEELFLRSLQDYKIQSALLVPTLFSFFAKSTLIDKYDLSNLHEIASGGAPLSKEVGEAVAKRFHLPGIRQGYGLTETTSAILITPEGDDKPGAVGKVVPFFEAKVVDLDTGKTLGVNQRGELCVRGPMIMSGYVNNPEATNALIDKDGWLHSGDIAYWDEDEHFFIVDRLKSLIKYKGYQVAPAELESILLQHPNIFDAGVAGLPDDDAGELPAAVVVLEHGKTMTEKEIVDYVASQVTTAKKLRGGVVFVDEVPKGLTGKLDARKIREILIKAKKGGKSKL
T3 sequence (P49327 whole entry): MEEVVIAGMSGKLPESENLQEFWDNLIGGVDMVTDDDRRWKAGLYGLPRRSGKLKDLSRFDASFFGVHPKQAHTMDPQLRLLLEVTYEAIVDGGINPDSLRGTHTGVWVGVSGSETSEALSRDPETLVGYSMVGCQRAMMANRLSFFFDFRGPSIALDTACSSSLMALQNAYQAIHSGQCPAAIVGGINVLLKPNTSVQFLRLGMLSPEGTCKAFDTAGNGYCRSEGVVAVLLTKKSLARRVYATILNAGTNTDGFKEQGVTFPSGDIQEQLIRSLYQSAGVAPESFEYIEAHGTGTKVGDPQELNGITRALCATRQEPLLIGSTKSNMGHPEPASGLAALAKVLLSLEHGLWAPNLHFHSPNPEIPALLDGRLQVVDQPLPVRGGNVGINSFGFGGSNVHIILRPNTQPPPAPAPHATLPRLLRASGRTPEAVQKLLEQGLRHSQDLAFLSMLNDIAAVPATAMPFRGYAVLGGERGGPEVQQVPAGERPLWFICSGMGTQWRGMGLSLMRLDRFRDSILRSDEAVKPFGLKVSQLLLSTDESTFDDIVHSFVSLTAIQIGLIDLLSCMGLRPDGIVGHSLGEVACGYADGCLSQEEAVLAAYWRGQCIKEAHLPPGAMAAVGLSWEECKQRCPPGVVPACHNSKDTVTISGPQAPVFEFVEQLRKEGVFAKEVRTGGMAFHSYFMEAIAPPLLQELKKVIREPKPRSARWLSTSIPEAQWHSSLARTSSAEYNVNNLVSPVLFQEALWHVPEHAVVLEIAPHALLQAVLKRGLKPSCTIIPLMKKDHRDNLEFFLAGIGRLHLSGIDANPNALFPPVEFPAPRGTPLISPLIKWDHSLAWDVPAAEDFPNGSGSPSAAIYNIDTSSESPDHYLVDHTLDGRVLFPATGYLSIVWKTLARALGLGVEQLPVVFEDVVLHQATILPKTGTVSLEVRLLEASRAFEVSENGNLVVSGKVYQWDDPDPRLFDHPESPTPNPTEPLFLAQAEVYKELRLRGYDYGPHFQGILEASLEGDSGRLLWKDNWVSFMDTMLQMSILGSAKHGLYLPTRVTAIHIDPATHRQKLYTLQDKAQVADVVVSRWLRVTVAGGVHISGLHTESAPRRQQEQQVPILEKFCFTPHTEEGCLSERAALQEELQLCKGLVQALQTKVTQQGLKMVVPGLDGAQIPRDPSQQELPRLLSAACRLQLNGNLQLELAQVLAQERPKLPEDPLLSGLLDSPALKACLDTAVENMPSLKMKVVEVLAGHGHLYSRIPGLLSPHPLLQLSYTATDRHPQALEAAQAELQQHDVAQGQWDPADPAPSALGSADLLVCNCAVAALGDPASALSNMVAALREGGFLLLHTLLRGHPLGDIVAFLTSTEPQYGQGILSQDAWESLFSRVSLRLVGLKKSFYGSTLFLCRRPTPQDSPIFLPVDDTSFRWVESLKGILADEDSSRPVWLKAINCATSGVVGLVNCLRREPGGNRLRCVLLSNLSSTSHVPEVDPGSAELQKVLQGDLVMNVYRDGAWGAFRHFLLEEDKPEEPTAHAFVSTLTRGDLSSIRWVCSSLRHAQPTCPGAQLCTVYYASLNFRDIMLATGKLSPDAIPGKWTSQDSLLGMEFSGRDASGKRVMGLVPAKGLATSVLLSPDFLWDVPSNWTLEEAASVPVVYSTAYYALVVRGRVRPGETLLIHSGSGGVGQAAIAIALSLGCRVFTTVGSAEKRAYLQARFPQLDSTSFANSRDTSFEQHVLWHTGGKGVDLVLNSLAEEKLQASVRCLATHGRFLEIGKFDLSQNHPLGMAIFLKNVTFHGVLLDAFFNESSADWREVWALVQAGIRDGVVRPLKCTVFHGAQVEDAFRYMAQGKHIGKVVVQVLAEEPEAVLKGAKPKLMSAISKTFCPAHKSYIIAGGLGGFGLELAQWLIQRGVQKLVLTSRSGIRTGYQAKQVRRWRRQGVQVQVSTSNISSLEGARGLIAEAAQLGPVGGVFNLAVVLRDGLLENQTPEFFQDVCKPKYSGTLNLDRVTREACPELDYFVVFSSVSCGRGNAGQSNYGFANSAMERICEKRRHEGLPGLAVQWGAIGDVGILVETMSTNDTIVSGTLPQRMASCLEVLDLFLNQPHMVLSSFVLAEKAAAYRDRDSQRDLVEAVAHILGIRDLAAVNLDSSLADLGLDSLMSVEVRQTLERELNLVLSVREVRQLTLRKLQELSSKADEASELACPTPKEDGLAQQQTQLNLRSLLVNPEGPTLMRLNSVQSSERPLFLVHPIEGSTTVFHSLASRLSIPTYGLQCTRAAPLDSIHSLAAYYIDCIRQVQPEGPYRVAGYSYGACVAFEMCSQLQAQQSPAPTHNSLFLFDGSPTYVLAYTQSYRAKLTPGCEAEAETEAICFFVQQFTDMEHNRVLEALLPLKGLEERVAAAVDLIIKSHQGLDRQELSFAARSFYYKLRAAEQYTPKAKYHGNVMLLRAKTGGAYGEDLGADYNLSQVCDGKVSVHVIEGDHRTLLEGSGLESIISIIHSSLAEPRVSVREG
Chain of Neurotensin receptor type 1 (P30989 whole entry): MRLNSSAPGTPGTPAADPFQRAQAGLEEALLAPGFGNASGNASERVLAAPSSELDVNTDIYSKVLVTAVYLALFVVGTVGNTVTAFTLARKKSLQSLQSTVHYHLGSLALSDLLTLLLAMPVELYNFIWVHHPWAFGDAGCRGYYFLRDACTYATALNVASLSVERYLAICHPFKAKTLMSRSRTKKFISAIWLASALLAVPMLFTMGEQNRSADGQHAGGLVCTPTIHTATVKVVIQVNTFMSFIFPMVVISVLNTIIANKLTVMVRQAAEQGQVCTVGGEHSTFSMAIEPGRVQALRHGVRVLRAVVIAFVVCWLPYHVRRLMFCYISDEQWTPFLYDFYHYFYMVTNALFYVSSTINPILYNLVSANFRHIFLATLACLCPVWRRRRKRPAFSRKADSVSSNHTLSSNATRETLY
Chain of Nonstructural protein 1 (Q194T2 whole entry): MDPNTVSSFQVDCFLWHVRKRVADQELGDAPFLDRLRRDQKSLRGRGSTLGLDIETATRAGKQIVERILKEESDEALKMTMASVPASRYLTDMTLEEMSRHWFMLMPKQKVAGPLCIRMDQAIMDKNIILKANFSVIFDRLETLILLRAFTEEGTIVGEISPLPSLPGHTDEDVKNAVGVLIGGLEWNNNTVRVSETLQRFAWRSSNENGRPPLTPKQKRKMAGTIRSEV
Chain of Serine/threonine-protein phosphatase PP1-alpha catalytic subunit (P62136 whole entry): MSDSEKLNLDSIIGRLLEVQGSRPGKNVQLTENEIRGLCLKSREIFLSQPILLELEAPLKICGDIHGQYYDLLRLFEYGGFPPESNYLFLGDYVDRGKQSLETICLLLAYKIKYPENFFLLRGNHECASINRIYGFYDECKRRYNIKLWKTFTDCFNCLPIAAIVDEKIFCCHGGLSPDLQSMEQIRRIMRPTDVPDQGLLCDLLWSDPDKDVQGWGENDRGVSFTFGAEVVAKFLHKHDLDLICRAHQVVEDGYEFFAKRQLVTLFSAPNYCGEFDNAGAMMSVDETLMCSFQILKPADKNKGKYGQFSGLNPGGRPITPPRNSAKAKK

For `O=C(c1ccc(Cl)cc1)N1CCCCC(Sc2nnc(-c3ccc4c(c3)OCO4)o2)C1=O` (stereo not given), the EC50 [1] was 4.07 µM (active), the EC50 (HEK293 [2]) was 4.25 µM (not active) and the EC50 [3] was > 8 µM (not active). For the same compound, the IC50 [4] was > 100 µM (not active), the EC50 (HT-1080) was > 50 µM (not active) and the EC50 (HEK293 [5]) was 2.19 µM (active). For the same compound, the AC50 [6] was 2.78 µM (active), the AC50 [7] was 13.5 µM (active) and the AC50 [8] was 5.75 µM (active).

For `Cc1cc(C)n(CC(=O)NC2CCCc3c2cnn3-c2ccc(C)c(C)c2)n1` (stereo not given), the AC50 [9] was 0.819 µM (active).

With `Cc1cccc(Nc2nc(-c3ccccn3)cs2)n1` the IC50 [10] was 4.96 µM (active), the IC50 [4] was > 10 µM (inconclusive) and the EC50 [11] was 0.503 µM (active). For the same compound, the IC50 [12] was > 22.3 µM (not active), the EC50 [13] was 8.56 µM (active) and the EC50 [14] was 7.24 µM (active). The CC50 [15] was 21.8 µM (active), the CC50 [16] was 11.6 µM (active) and the IC50 (Nonstructural protein 1) was 29.6 µM (active). For the same compound, the IC50 (cells) was 0.27 µM (active).

With `N#CC(C#N)=C1C=CC=CN1/C(=C\c1ccco1)C(=O)c1ccc(-c2ccccc2)cc1` the EC50 [17] was 4.69 µM (active), the IC50 [18] was 16.1 µM (active) and the EC50 (Beta-galactosidase) was > 31.5 µM (inactive). For the same compound, the EC50 [19] was 4.81 µM (active), the pIC50 [20] was less than 4.49 and the IC50 [21] was 0.945 µM (active).

In the case of `C[C@@H](NC(=O)c1[nH]cnc1C(=O)Nc1ccc(Cl)cc1)c1ccccc1`, the EC50 [22] was 19.9 µM (active), the IC50 (Fatty acid synthase [23]) was 8.13 µM (active) and the IC50 (Fatty acid synthase [24]) was 7.01 µM (active).

For `O=C(COc1ccccc1Cc1ccccc1)NCCCN1CCOCC1`, the AC50 (ORF 73) was 183 µM (active).
